Results on four molecules are retold here after ChEMBL document CHEMBL3046608, “Efficient isolation of catechins from green tea and characterization of interaction property of catechins with proteins by HPLCUV/DAD combined with ultrafiltration” (Med Chem Res, 2012).

Data set [1] can be described thus: (§1) Total plasma protein binding in Rattus norvegicus Wistar (rat) by ultrafiltration-HPLC-UV/DAD method. The format is ADME, cell-free. As to conditions: Wistar, read-out: PPB (converted).
Data set [2] in a line: (§2) Total plasma protein binding in Homo sapiens (human) by ultrafiltration-HPLC-UV/DAD method. The format is ADME, cell-free. As to conditions: read-out: PPB (converted).
Data set [3] deals with T1, Albumin (Homo sapiens, UniProt P02768). As to the kind of experiment: Binding affinity to 0.6 mM Homo sapiens (human) serum albumin by ultrafiltration-HPLC-UV/DAD method. The format is ADME.
T1 sequence (P02768 whole entry): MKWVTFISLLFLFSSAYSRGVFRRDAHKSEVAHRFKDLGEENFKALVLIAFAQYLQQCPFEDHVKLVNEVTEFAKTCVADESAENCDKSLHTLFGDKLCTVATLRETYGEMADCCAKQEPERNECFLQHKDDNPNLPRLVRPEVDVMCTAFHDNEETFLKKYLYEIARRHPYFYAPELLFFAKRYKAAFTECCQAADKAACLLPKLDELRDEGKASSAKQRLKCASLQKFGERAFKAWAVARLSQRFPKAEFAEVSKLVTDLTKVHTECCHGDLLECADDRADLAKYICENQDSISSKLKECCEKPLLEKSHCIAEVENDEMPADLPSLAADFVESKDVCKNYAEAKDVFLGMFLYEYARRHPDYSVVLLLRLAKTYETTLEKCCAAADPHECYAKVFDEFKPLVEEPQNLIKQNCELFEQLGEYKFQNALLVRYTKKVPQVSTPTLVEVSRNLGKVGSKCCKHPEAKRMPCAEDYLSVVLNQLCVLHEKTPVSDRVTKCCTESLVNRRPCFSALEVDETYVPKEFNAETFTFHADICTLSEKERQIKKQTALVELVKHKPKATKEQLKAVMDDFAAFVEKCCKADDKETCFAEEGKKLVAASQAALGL
The species named for data set [4] is Rattus norvegicus. As to the kind of experiment: Binding affinity to Rattus norvegicus Wistar (rat) pancreatic membrane protein by ultrafiltration-HPLC-UV/DAD method.
Data set [5] can be described thus: Diluted plasma protein binding in Rattus norvegicus Wistar (rat) by ultrafiltration-HPLC-UV/DAD method. Format: ADME, cell-free. As to conditions: read-out: PPB (converted).
The target of data set [6] is T1, Albumin. In words: Binding affinity to 0.06 mM Homo sapiens (human) serum albumin by ultrafiltration-HPLC-UV/DAD method. Format: ADME.
Data set [7] in a line: Diluted plasma protein binding in Homo sapiens (human) by ultrafiltration-HPLC-UV/DAD method. Format: ADME, cell-free. As to conditions: read-out: PPB (converted).
The next data set has as its system Lipid bilayer. In words: Binding affinity to Rattus norvegicus Wistar (rat) pancreatic phospholipid membrane by ultrafiltration-HPLC-UV/DAD method.
For data set [8], the system named is Plasma. The description is as §1. The format is ADME, cell-free.
The subject of data set [9] is Plasma. The description is as §2. The format is ADME, cell-free.
For data set [10], the species on record is Rattus norvegicus. In words: Selectivity ratio of binding affinity to Rattus norvegicus Wistar (rat) pancreatic membrane protein to Rattus norvegicus Wistar (rat) pancreatic phospholipid membrane.

Consider `Oc1cc(O)c2c(c1)O[C@@H](c1ccc(O)c(O)c1)[C@H](O)C2` [(-)-CATECHIN], for which the fraction unbound is 0.15 in data set [1], 0.15 in [2], 0.55 in data set [5] and 0.55 in data set [7]. The Activity stood at 65.6% on Albumin [3], 36.9% in the data set filed under Rattus norvegicus [4] and 30.9% on Albumin [6].
In the case of `Cn1c(=O)c2c(ncn2C)n(C)c1=O` [CAFFEINE], the values for the Activity in the data set on Lipid bilayer, at Albumin [3] and on Albumin [6] were 62.8%, 72.7% and 58.4%, respectively. In addition, the PPB in the data set with Plasma [8] and in the data set on Plasma [9] was 80% in each case.
For the molecule `O=C(O[C@@H]1Cc2c(O)cc(O)cc2O[C@@H]1c1ccc(O)c(O)c1)c1cc(O)c(O)c(O)c1` [EPICATECHIN GALLATE], the Activity with Lipid bilayer is 91.5%; on Albumin [3], 85.8%; in the data set listed under Rattus norvegicus [4] it was 39.2%; on Albumin [6], 69.5%. Besides, the fraction unbound in data set [1] and in data set [2] was 0.15 throughout. Moreover, the Ratio in the data set filed under Rattus norvegicus [10] was found to be 2.
In the case of `O=C(O[C@@H]1Cc2c(O)cc(O)cc2O[C@@H]1c1cc(O)c(O)c(O)c1)c1cc(O)c(O)c(O)c1` [EPIGALOCATECHIN GALLATE], the Activity amounted to 78.8% in the data set on Lipid bilayer, 85.2% on Albumin [3], 37.4% in the data set listed under Rattus norvegicus [4] and 68.7% on Albumin [6]. For the same molecule, the fraction unbound in data set [1] and in data set [2] was 0.15 throughout.
